Reference: ChEMBL document CHEMBL2021798, “Discovery of new quinoline ether inhibitors with high affinity and selectivity for PDGFR tyrosine kinases” (Bioorg Med Chem Lett, 2012)

Tests used:
[1] = Terminal half life in dog at 20 mg/kg, iv; assay type: ADME, organism-based, Canis lupus familiaris; parameters: dose 20 mg/kg, route intravenous; details: in vivo, read-out: beta t1/2 (converted)
[2] = Terminal half life in rat at 20 mg/kg, iv; assay type: ADME, organism-based; parameters: dose 20 mg/kg, route intravenous; details: in vivo, read-out: beta t1/2 (converted)
Canis familiaris [3] = assay: Volume of distribution at steady state in dog at 20 mg/kg, po; assay type: ADME, organism-based, Canis lupus familiaris; parameters: dose 20 mg/kg, route oral; details: in vivo
Rattus norvegicus [4] = assay: Volume of distribution at steady state in rat at 20 mg/kg, po; assay type: ADME, organism-based; parameters: dose 20 mg/kg, route oral; details: in vivo
[5] = Clearance in dog at 20 mg/kg, po; assay type: ADME, organism-based, Canis lupus familiaris; parameters: dose 20 mg/kg, route oral; details: in vivo
[6] = Clearance in rat at 3 mg/kg, po; assay type: ADME, organism-based; parameters: dose 3 mg/kg, route oral; details: in vivo
[7] = Oral bioavailability in dog at 3 mg/kg; assay type: ADME, organism-based, Canis lupus familiaris; details: in vivo
Rattus norvegicus [8] = assay: Volume of distribution at steady state in rat at 3 mg/kg, po; assay type: ADME, organism-based; parameters: dose 3 mg/kg, route oral; details: in vivo
[9] = Terminal half life in dog at 3 mg/kg, iv; assay type: ADME, organism-based, Canis lupus familiaris; parameters: dose 3 mg/kg, route intravenous; details: in vivo, read-out: beta t1/2 (converted)
[10] = Terminal half life in rat at 3 mg/kg, iv; assay type: ADME, organism-based; parameters: dose 3 mg/kg, route intravenous; details: in vivo, read-out: beta t1/2 (converted)
Canis familiaris [11] = assay: Volume of distribution at steady state in dog at 3 mg/kg, po; assay type: ADME, organism-based, Canis lupus familiaris; parameters: dose 3 mg/kg, route oral; details: in vivo
[12] = Lipophilicity, log D of the compound; assay type: physicochemical; details: octanol/water
[13] = Dissociation constant, pKa of the compound; assay type: physicochemical
[14] = Clearance in dog at 3 mg/kg, po; assay type: ADME, organism-based, Canis lupus familiaris; parameters: dose 3 mg/kg, route oral; details: in vivo
[15] = Oral bioavailability in rat at 3 mg/kg; assay type: ADME, organism-based; details: in vivo
[16] = Oral bioavailability in rat at 20 mg/kg; assay type: ADME, organism-based; details: in vivo
[17] = Clearance in rat at 20 mg/kg, po; assay type: ADME, organism-based; parameters: dose 20 mg/kg, route oral; details: in vivo
[18] = Oral bioavailability in dog at 20 mg/kg; assay type: ADME, organism-based, Canis lupus familiaris; details: in vivo

COc1ccc2c(Oc3ccc(CC(=O)Nc4cn(C)nc4C)c(OC)c3)ccnc2c1
half-life [1]: 8.6 h
half-life [2]: 3.7 h
Vdss (Canis familiaris [3]): 1.4 L/kg
Vdss (Rattus norvegicus [4]): 0.7 L/kg
CL/F [5]: 2.4 mL/min/kg

CCOc1cc2nccc(Oc3cnc(CC(=O)Nc4n[nH]c(CC)c4C)c(OC)c3)c2cc1OC
CL/F [6]: 9 mL/min/kg
bioavailability [7]: 100%
Vdss (Rattus norvegicus [8]): 0.7 L/kg
half-life [9]: 3.4 h
half-life [10]: 1.6 h
Vdss (Canis familiaris [11]): 2 L/kg
logD [12]: 3.3
pKa [13]: 6
CL/F [14]: 11.5 mL/min/kg
bioavailability [15]: 43%

COc1ccc2c(Oc3ccc(CC(=O)Nc4cn(C)nc4C)c(OC)c3)ccnc2c1.O=S(=O)(O)O
half-life [1]: 10.6 h
bioavailability [16]: 78%
half-life [2]: 3.7 h
logD [12]: 3.5
pKa [13]: 6.3
CL/F [17]: 5.7 mL/min/kg
Vdss (Canis familiaris [3]): 1.8 L/kg
Vdss (Rattus norvegicus [4]): 0.7 L/kg
bioavailability [18]: 59%
CL/F [5]: 2.5 mL/min/kg
